The experiment deals with T1, Human SSAO (Homo sapiens, UniProt Q16853).
T1 construct: rat lung or human umbilical cord homogenates were prepared by chopping the freshly removed tissue; from tissue; host or cells: human umbilical cord homogenate (25,000 g supernatant)
T1 sequence (Q16853 1-763): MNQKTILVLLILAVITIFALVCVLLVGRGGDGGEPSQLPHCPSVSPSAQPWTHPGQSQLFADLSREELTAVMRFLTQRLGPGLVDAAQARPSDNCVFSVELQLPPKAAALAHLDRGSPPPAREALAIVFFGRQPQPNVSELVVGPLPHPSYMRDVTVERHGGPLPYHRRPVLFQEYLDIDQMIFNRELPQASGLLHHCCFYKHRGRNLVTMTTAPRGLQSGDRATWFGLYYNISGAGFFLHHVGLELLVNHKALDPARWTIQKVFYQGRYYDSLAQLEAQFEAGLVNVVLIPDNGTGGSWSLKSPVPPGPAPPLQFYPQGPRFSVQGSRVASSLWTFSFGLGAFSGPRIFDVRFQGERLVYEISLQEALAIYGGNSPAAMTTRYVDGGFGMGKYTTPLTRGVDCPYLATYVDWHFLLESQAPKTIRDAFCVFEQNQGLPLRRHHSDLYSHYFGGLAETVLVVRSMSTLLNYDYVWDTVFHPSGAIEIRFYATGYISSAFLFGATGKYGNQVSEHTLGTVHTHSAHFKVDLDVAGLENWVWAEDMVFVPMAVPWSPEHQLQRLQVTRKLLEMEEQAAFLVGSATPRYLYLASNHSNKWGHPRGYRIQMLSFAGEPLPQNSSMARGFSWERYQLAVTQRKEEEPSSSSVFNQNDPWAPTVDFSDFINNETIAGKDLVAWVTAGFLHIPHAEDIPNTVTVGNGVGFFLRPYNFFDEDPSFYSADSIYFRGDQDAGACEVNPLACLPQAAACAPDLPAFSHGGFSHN
The experiment is described as follows: In vitro inhibition of SSAO activity, human umbilical cord homogenate, 14C-benzylamine. The format is biochemical. Conditions: human umbilical cord homogenate; read-out: Human SSAO IC50. The method, then: SSAO activity was measured as described (Lizcano J M. Et al. (1998) Biochem J. 331:69). Briefly, rat lung or human umbilical cord homogenates were prepared by chopping the freshly removed tissue into small pieces and washing them thoroughly in PBS. The tissue was then homogenized 1:10 (w/v) for lung or 1:5 (w/v) for umbilical cord, in 10 mM potassium phosphate buffer (pH 7.8). Homogenates were then centrifuged at 1000 g at 4° C. for 10 min (lung) or 25,000 g for 30 min (umbilical cord); the supernatants were kept frozen until ready to use. Lung or umbilical cord homogenate was preincubated with clorgyline and pargyline at 1 μM to inhibit MAO-A and -B activity, respectively, and SSAO inhibitors were generally present at 1 nM-10 μM. The reaction was initiated by addition of 20 μM ^14C— benzylamine as substrate. The reaction was carried out at 37° C. in a final volume of 400 μL of 100 mM potassium phosphate buffer (pH 7.2) and stopped with 100 μl of 2M citric acid. Radioactively labeled products were extracted into toluene/ethyl acetate (1:1, v/v) containing 0.6% (w/v) 2,5-diphenyloxazole (PPO) before liquid scintillation counting.

Structures can show the parent of a compound that is named as a salt.

As for `CCOc1ccc(C/C(=C\F)CN)cc1.Cl` [Compound I-2-E, (E)-3-Fluoro-2-(4-ethoxybenzyl)-allylamine hydrochloride], the IC50 (in general, the concentration at which inhibition is half-maximal) stood at 9 nM.
The result for `Cl.NC/C(=C\F)Cc1ccc(Cl)cc1` [Compound I-3-Z, (Z)-2-(4-Chlorobenzyl)-3-fluoro-allylamine hydrochloride] reads 28 nM.
Consider `COc1cccc(C/C(=C/F)CN)c1.Cl` [Compound I-5-Z, (Z)-3-Fluoro-2-(3-methoxybenzyl)allylamine hydrochloride], for which the IC50 was 28 nM.
Turning to `CC(C)Oc1ccc(C/C(=C\F)CN)cc1` [Compound I-8-E, (E)-3-Fluoro-2-(4-isopropoxybenzyl)allylamine hydrochloride], the IC50 was 11.4 nM.
`CC(C)Oc1ccc(C/C(=C/F)CN)cc1.Cl` [Compound I-8-Z, (Z)-3-Fluoro-2-(4-isopropoxybenzyl)allylamine hydrochloride]: the IC50 was determined as 5 nM.
The result for `CSc1ccc(C/C(=C/F)CN)cc1.Cl` [Compound I-9-Z, (Z)-3-Fluoro-2-(4-methylthiobenzyl)allylamine hydrochloride] reads 12 nM.
As for `CC(C)c1ccc(C/C(=C\F)CN)cc1.Cl` [Compound I-14-E, (E)-3-Fluoro-2-(4-isopropylbenzyl)allylamine hydrochloride], the 50% inhibitory concentration (IC50) came out at 13 nM.
The same measure for `CC(C)c1ccc(C/C(=C/F)CN)cc1.Cl` [Compound I-14-Z, (Z)-3-Fluoro-2-(4-isopropylbenzyl)allylamine hydrochloride]: 8 nM.
Regarding `CC(C)(C)c1ccc(C/C(=C/F)CN)cc1.Cl` [Compound I-15-Z, (Z)-3-Fluoro-2-(4-tert-butylbenzyl)allylamine hydrochloride], the IC50 was found to be 7 nM.
The same measure for `Cl.NC/C(=C\F)Cc1cccc(F)c1` [Compound I-19-Z, (Z)-3-Fluoro-2-(3-fluorobenzyl)allylamine hydrochloride]: 25 nM.
Take `NC/C(=C\Cl)CCc1cc(F)cc(C(F)(F)F)c1.O=C(O)C(F)(F)F` [Compound I-40-Z, (Z)-3-Chloro-2-(3-fluoro-5-trifluoromethylphenylethyl)allylamine trifluoroacetate]: the IC50 was found to be 920 nM.
As for `COc1ccc(CC/C(=C\Cl)CN)cc1.Cl` [Compound I-44-Z, (E)-3-Chloro-2-(4-methoxyphenylethyl)allylamine hydrochloride], the IC50 was determined as 720 nM.
Turning to `CCOc1ccc(CC/C(=C\Cl)CN)cc1.Cl` [Compound I-45-Z, (E)-3-Chloro-2-(4-ethoxyphenylethyl)allylamine hydrochloride], the IC50 is 140 nM.
In the case of `CCCCOc1ccc(CC/C(=C\Cl)CN)cc1.Cl` [Compound I-47-E, (E)-3-Chloro-2-(4-n-butoxyphenylethyl)allylamine hydrochloride], the half-inhibitory concentration (IC50) is 170 nM.
The same measure for `NC/C(=C\F)CCc1ccc(F)cc1` [Compound I-99-Z, (Z)-2-(fluoromethylene)-4-(4-fluorophenyl)butan-1-amine]: 130 nM; for `COc1ccc(CC/C(=C/F)CN)cc1.Cl` [Compound I-102-Z, (Z)-3-Fluoro-2-[2-(4-methoxyphenyl)-ethyl]-allylamine hydrochloride]: 30 nM; for `NC/C(=C\F)CCc1cc(F)cc(C(F)(F)F)c1.O=C(O)C(F)(F)F` [Compound I-109-Z, (Z)-3-Fluoro-2-(3-fluoro-5-trifluoromethylphenylethyl)allylamine trifluoroacetate]: 270 nM.
Regarding `Cl.NC/C(F)=C\Cc1ccc(F)cc1` [II-5-E, (E)-2-Fluoro-4-(4-fluorophenyl)-2-butenylamine hydrochloride], the IC50 worked out at 300 nM.
The same measure for `Cc1cccc(C/C=C(/F)CN)c1.Cl` [II-6-E, (E)-2-Fluoro-4-(3-methylphenyl)-2-butenylamine hydrochloride]: 130 nM; for `Cl.NC/C(F)=C\Cc1cccc(F)c1` [II-7-E, (E)-2-Fluoro-4-(3-fluorophenyl)-2-butenylamine hydrochloride]: 220 nM.
For `COc1cccc(C/C=C(/F)CN)c1.Cl` [II-8-E, (E)-2-Fluoro-4-(3-methoxyphenyl)-2-butenylamine hydrochloride], the IC50 is 22 nM.
The same measure for `Cl.NC/C(F)=C\Cc1ccccc1` [II-9-E, (E)-2-Fluoro-4-phenyl-2-butenylamine hydrochloride]: 99 nM; for `Cl.NC/C(F)=C\Cc1cccc(OC(F)(F)F)c1` [II-10-E, (E)-2-Fluoro-4-(3-trifluoromethoxyphenyl)-2-butenylamine hydrochloride]: 18 nM.
The same measure for `CN(C)c1cccc(C/C=C(/F)CN)c1.Cl` [II-11-E, (E)-2-Fluoro-4-(3-dimethylaminophenyl)-2-butenylamine hydrochloride]: 110 nM; for `CSc1cccc(C/C=C(/F)CN)c1.Cl` [II-13-E, (E)-2-Fluoro-4-(3-methylthiophenyl)-2-butenylamine hydrochloride]: 10 nM.
The same measure for `CS(=O)(=O)c1cccc(C/C=C(/F)CN)c1.Cl` [II-14-E, (E)-2-Fluoro-4-(3-methanesulfonylphenyl)-2-butenylamine hydrochloride]: 70 nM; for `Cl.NC/C(F)=C\Cc1cccc(SC(F)(F)F)c1` [II-15-E, (E)-2-Fluoro-4-(3-trifluoromethylthiophenyl)-2-butenylamine hydrochloride]: 23 nM; for `COc1cccc(C/C(C)=C(/F)CN)c1` [II-18-E, hydrochloride]: 290 nM.
`COc1cccc(OC/C=C(/F)CN)c1` [II-19-E, (E)-2-fluoro-4-(3-methoxyphenoxy)but-2-en-1-amine]: the half-maximal inhibitory concentration (IC50) is 160 nM.

(Values after patent US20110269811A1, “INHIBITORS OF SEMICARBAZIDE-SENSITIVE AMINE OXIDASE (SSAO) AND VAP-1 MEDIATED ADHESION USEFUL FOR TREATMENT AND PREVENTION OF DISEASES” (priority 2006, published 2011).)
